Results from US20110092465A1, “MONOMERIC PYROPHOSPHATE COMPLEXES AND METHODS OF TREATMENT USING THE COMPLEXES” (SYRACUSE UNIVERSITY, priority 2009, published 2011).
Like-named read-outs stand apart in the source and are kept apart here.

Assays:
A2780/AD cell line = assay type: cell-based, human
Experimental: Cisplatin was used as a control and for comparative purposes. The IC50 values (μM) are for compounds 1-4 in A2780/AD cell line. Cisplatin controls and dimeric complexes previously reported are also shown for comparison:
Experimental details for the in-vitro cell testing of compounds [Co(phen)2(H2P2O7)].4H2O (1.4H2O), [Ni(phen)2(H2P2O7)].8H2O (2.8H2O) and [Cu(phen)(H2O)(H2P2O7)]. For in vitro cell studies, all experiments were performed in a Labconco Purifier I laminar flow hood that had been disinfected with 70% ethanol and irradiated with UV light. The A2780/AD cell line that was used for testing was provided by the Fox Chase Cancer Center, Philadelphia (USA). Fetal bovine serum (FBS) was purchased from Hyclone. Penicillin-streptomycin solution with 10,000 units penicillin and 10 mg/mL streptomycin in 0.9% NaCl was obtained from Sigma. Gibco RPMI 1640 growth media that contained L-glutamine and phenol red was supplied by Invitrogen. Cellgro Cellstripper, a non-enzymatic cell dissociation solution, was obtained from Mediatech. Growth media were filtered with 0.22 μm filter (VWR). Cell Counting Kit 8 (CCK8) was purchased from Dojindo. Cells were incubated and grown in an incubator that was purchased from VWR. Optical densities of the cell cultures were measured at 450 nm with Thermo Multiskan EX that was equipped with Ascent software version 2.6.
Cell lines and culture conditions. The A2780/AD cell line was cultured in BD Falcon 25 cm^2 surface area, canted neck flaks with vented cap (VWR) containing RPMI media supplemented with 10% FBS and 10% Penicillin-Streptomycin solution by volume. Subcultures were generated by incubating the cells with Cellstripper, and passing cells at a 1:10 culture ratio.
Drug cytotoxicity. Cells used for studies were diluted to make either a solution of 50,000 cells/mL, used for the 72 h studies, or 80,000 cells/mL, used for the 6 and 24 h studies. 100 μL of the cell solution was added to the wells of a 96 well plate, and the cells were allowed to adhere overnight. The media was then removed from the 96 well plates and replaced with either 100 μL (for 6 h studies) or 200 μL (for 24 and 72 h studies) of media containing drug. Drug solutions were prepared by dissolving the drug in media (compounds 2, 4) or in a 25% methanol solution (compounds 1, 3). The solutions were filter sterilized and serially diluted 1:10. The concentration of methanol was kept below 5% for all concentrations studied. Cisplatin was prepared by dissolving in PBS and sonicating for 1 h to create a final concentration of 0.5 mg/mL (1.66 mM). Each drug was tested over 9 concentrations in triplicate with each point in done in triplicate. After the incubation period, the drug containing media was removed and replaced with 100 μL of media containing 10% CCK-8 solution by volume. The plates were incubated until the control reached 0.8-1.2 absorbance at 450 nm (2, 1.5 and 0.5 h for the 6, 24, 72 h runs respectively). The absorbance was measured at 450 nm via a plate reader. A blank was subtracted from all wells, and the results were plotted as a percentage compared to the control vs. concentration of drug. IC50 values were calculated by fitting the data using Prism Graphpad 5 using a nonlinear, dose response curve with a 4 variable fit. The reported ICso values are an average of at least 3 runs reported with standard deviation.

[1] = system: adriamycin-resistant human ovarian cancer cell line (A2780/AD); assay: Proliferation colorimetric assay (WSK-8) of compounds 11-13 in A2780/AD; assay type: cell-based; details: for toxicity in words: 24 and 72 h
Experimental: Compounds 11, 12, and 13 were tested against the adriamycin-resistant human ovarian cancer cell line (A2780/AD) over a time period of 24 and 72 h (Table 8 below). Cisplatin was used as an external control. Adriamycin resistant ovarian cancer cell line (A2780/AD) were cultured as adherent monolayers in RPMI 1640 (Invitrogen) growth media containing L-glutamine and folic acid supplemented with 10,000 units penicillin, 10 mg/ml streptomycin (Sigma) and 10% (v/v) fetal bovine serum (Sigma). Cells were incubated and grown in a VWR mammalian incubator at 5% CO2 and 95% humidity. All preparations for cell culture and assays were conducted in a sterile environment under a Labconco Purifier I Laminar flow hood. Cells were cultured in Millipore 250 mL culture bottles with vented lids.
The proliferation of the exponential phase cultures of A2780/AD were assessed by colorimetric assay. WSK-8 (Dojindo) was performed according to manufacturer's instruction. Adherent cell cultures were harvested by stripping of culture flask by a non-enzymatic cell stripper (Mediatech) after a 30 minute incubation period. The cells were then collected. The cell density was adjusted with the addition of RPMI 1640 media to 80,000 cells/mL for exponential growth for the period of drug exposure. To each well, aliquots of 100 μL were inoculated resulting in 8,000 cells per well. After a 24 h incubation time to facilitate adherence, the media was removed and replaced with 200 μl of fresh media containing different concentrations of compounds 11, 12, and 13. The cells were then incubated for 24 and 72 h. Optical densities were measured at 450 nm using a plate reader. The percentage of cell viability was determined relative to untreated control microcultures. The IC50 concentrations were calculated based on a sigmoidal (doseresponse) fit using OriginLabs 8 software with R^2 values ≧0.70 in all cases (average R^2 value 0.90). All experimental points were measured in triplicate and each experiment was performed at least three times on separate “batches” of synthesized compound. A2780/AD2O cells used were fewer than 12 passages for all testing.

[2] = system: adriamycin-resistant human ovarian cancer cell line (A2780/AD); details: dimeric complexes previously reported (Ref 3), cited from earlier work
[3] = A2780/AD, 6 h exposure, read-out: IC50 6 h
[4] = A2780/AD, 24 h exposure, read-out: IC50 24 h
[5] = A2780/AD, 72 h exposure, read-out: IC50 72 h
[6] = 24 h exposure, read-out: IC50 24 h
[7] = 72 h exposure, read-out: IC50 72 h

| Compound | IC50 (A2780/AD cell line) [µM] | cytotoxic activity in words (A2780/AD cell line) | IC50 (A2780/AD cell line; [3]) [µM] | IC50 (A2780/AD cell line; [4]) [µM] | IC50 (A2780/AD cell line; [5]) [µM] | toxicity in words [1] | IC50 [1, 6] [µM] | IC50 ([2]; 24 h, read-out: IC50 24 h) [nM] | IC50 ([2]; 72 h, read-out: IC50 72 h) [nM] | IC50 ([1]; 72 h, read-out: IC50 at 72 h) [µM] | IC50 [1, 7] [µM] |
| --- | --- | --- | --- | --- | --- | --- | --- | --- | --- | --- | --- |
| O.O.O.O.O.O.O.O.O.O.O.O.O.O.O.O=P([O-])([O-])OP(=O)([O-])[O-].[Cu+2].[Na+].[Na+].c1cnc2c(c1)ccc1cccnc12 [compound 4, {[Cu(phen)(H2O)(P2O7)] [Na2(H2O)8]}.6H2O] | 0.03 to 0.08 | low nanomolar range | 15 ± 6 | 0.6 ± 0.6 | 0.08 ± 0.03 | – | – | – | – | – | – |
| O.O.O.O.O.O.O.O.O.O.O=P([O-])([O-])OP(=O)([O-])[O-].[Cu+2].[Cu+2].c1cnc2c(c1)ccc1cccnc12.c1cnc2c(c1)ccc1cccnc12 [compound 12, {[Cu(phen)(H2O)]2(μ-P2O7)}.8H2O] | – | – | – | – | – | significant toxicity | 0.64 ± 0.12 | 600 | 1.8 | – | – |
| O=P([O-])([O-])OP(=O)([O-])[O-].[Co+2].[Co+2].c1cnc2c(c1)ccc1cccnc12.c1cnc2c(c1)ccc1cccnc12.c1cnc2c(c1)ccc1cccnc12.c1cnc2c(c1)ccc1cccnc12 [compound 13, {[Co(phen)2]2(μ-25 P2O7)}.6MeOH] | – | – | – | – | – | significant toxicity | 2.01 ± 0.86 | 2000 | 0.17 | 0.00016 | – |
| O.O=P([O-])(O)OP(=O)([O-])O.[Cu+2].c1cnc2c(c1)ccc1cccnc12 [compound 3, [Cu(phen)(H2O)(H2P2O7)]] | – | low nanomolar range | 14 ± 6 | 0.7 | 0.14 ± 0.05 | – | – | – | – | ~0.000162 | – |
| cis-[Pt(NH3)2Cl2] [Cisplatin, reference compound] | – | – | > 160 | 200 ± 16 | 13 ± 5 | – | 84 ± 10.3 | – | – | – | 11 ± 1.5 |
| O=P([O-])(O)OP(=O)([O-])O.[Co+2].c1cnc2c(c1)ccc1cccnc12.c1cnc2c(c1)ccc1cccnc12 [compound 1, [Co(phen)2(H2P2O7)].4H2O] | 0.03 to 0.08 | low nanomolar range | > 1000 | 5 | 0.03 ± 0.02 | – | – | – | – | – | – |
| O=P([O-])(O)OP(=O)([O-])O.[Ni+2].c1cnc2c(c1)ccc1cccnc12.c1cnc2c(c1)ccc1cccnc12 [compound 2, [Ni(phen)2(H2P2O7)].8H2O] | – | little activity | > 1000 | > 1000 | 630 ± 390 | low nanomolar inhibitory concentrations | – | – | – | – | – |
| O=P([O-])([O-])OP(=O)([O-])[O-].[Ni+2].[Ni+2].c1cnc2c(c1)ccc1cccnc12.c1cnc2c(c1)ccc1cccnc12.c1cnc2c(c1)ccc1cccnc12.c1cnc2c(c1)ccc1cccnc12 [compound 11, {[Ni(phen)2]2(μ-P2O7)}.27H2O] | – | – | – | – | – | low toxicity | 589 ± 31.6 | 590000 | 304000 | – | 304 ± 40.9 |
